# Source: publication PMC6465675, “Design, Synthesis, Antiviral Evaluation, and SAR Studies of New 1-(Phenylsulfonyl)-1H-Pyrazol−4-yl-Methylaniline Derivatives” (Frontiers in Chemistry, 2019)
# Columns and labels:
# [1] = tested on: DENV-2
# [2] = in vitro; settings: Mesocricetus auratus (hamster)
# [3] = tested on: DENV-2; experiment: microbe, parasite or virus in culture; settings: Dengue virus, DENV2, BHK, read-out: DENV-2 EC50
# [4] = in vitro; settings: Bos taurus (cattle)
# [5] = in vitro; settings: Cercopithecus aethiops (monkey), Vero76 CC50
# [6] = in vitro; settings: human
# [7] = tested on: YFV
# [8] = tested on: RSV
# [9] = tested on: YFV; experiment: microbe, parasite or virus in culture; settings: Yellow fever virus, BHK, read-out: YFV EC50
# [10] = tested on: RSV; experiment: microbe, parasite or virus in culture; settings: human respiratory syncytial virus, Vero 76, read-out: RSV EC50
# [11] = tested on: BVDV; experiment: microbe, parasite or virus in culture; settings: Bovine viral diarrhea virus isolates and strains, MDBK, read-out: BVDV EC50
SMILES,SI CC50/EC50 (DENV-2) [1],CC50 [2] [µM],EC50 [3] [µM],melting point [°C],CC50 [4] [µM],CC50 [5] [µM],CC50 [6] [µM],SI CC50/EC50 (YFV) [7],SI CC50/EC50 (RSV) [8],EC50 [9] [µM],EC50 [10] [µM],EC50 [11] [µM]
Cc1ccc(-c2nn(-c3ccccc3)cc2CNc2ccccc2)cc1 [1a],>3.3,> 100,30 ± 4,–,–,–,–,–,–,–,–,–
Brc1ccc(-c2nn(-c3ccccc3)cc2CNc2ccccc2)cc1 [1b],>4.5,> 100,22 ± 6,–,–,–,–,–,–,–,–,–
Brc1ccc(NCc2cn(-c3ccccc3)nc2-c2ccccc2)cc1 [1c],–,> 100,–,–,–,–,–,–,–,–,–,–
Clc1ccc(-c2nn(-c3ccccc3)cc2CNc2ccc(Br)cc2)cc1 [1d],>9.1,> 100,11 ± 0.4,–,–,–,–,–,–,–,–,–
Clc1ccc(NCc2cn(-c3ccccc3)nc2-c2ccccc2)cc1 [1h],>7.7,> 100,13 ± 5,–,–,–,–,–,–,–,–,–
Cc1ccc(-c2nn(-c3ccccc3)cc2CNc2ccc(Cl)cc2)cc1 [1k],>8.3,> 100,12.1 ± 3,–,–,–,–,–,–,–,–,–
Clc1ccc(NCc2cn(-c3ccccc3)nc2-c2ccc(Br)cc2)cc1 [1l],>7.8,> 100,12.9 ± 2.3,–,–,–,–,–,–,–,–,–
Cc1ccc(NCc2cn(-c3ccccc3)nc2-c2ccccc2)cc1 [1m],>8.9,> 100,11.2 ± 3.6,–,–,–,–,–,–,–,–,–
"O=S(=O)(c1ccccc1)n1cc(CNc2ccccc2)c(-c2ccccc2)n1 [7a, N-[(3-Phenyl-1-(phenysulfonyl)-1H-pyrazol-4-yl)methyl]aniline]",–,> 100,–,139,> 100,> 100,> 100,–,–,–,–,–
"Cc1ccc(NCc2cn(S(=O)(=O)c3ccccc3)nc2-c2ccccc2)cc1 [7d, 4-Methyl-N-[(3-phenyl-1-(phenylsulfonyl)-1H-pyrazol-4-yl)methyl]aniline]",–,> 100,–,199,> 100,≥ 100,> 100,–,–,–,–,–
"O=S(=O)(c1ccccc1)n1cc(CNc2ccccc2)c(-c2ccc(Cl)cc2)n1 [7i, N-[(3-(4-Chlorophenyl)-1-(phenylsulfonyl)-1H-pyrazol-4-yl)methyl]aniline]",–,> 100,–,117 to 118,> 100,> 100,> 100,>13.9,>8.5,7.2 ± 0.9,11.8 ± 2.5,–
"O=S(=O)(c1ccccc1)n1cc(CNc2ccc(Br)cc2)c(-c2ccc(Cl)cc2)n1 [7k, 4-Bromo-N-[(3-(4-chlorophenyl)-1-(phenylsulfonyl)-1H-pyrazol-4-yl)methyl]aniline]",–,> 100,–,142 to 143,> 100,> 100,> 100,>17.9,>7.2,5.6 ± 0.6,13.8 ± 0.4,–
"Cc1ccc(NCc2cn(S(=O)(=O)c3ccccc3)nc2-c2ccc(Cl)cc2)cc1 [7l, 4-Methyl-N-[(3-(4-chlorophenyl)-1-(phenylsulfonyl)-1H-pyrazol-4-yl)methyl]anyline]",–,> 100,–,100 to 101,> 100,> 100,> 100,>15.2,>4.2,6.6 ± 0.6,24 ± 1,–
"Cc1ccc(-c2nn(S(=O)(=O)c3ccccc3)cc2CNc2ccccc2)cc1 [7m, N-[(1-(Phenylsulfonyl)-3-(p-tolyl)-1H-pyrazol-4-yl)methyl]aniline]",–,> 100,–,128 to 129,> 100,> 100,> 100,>8.7,>8.0,11.5 ± 1,12.5 ± 2.1,–
"Cc1ccc(-c2nn(S(=O)(=O)c3ccccc3)cc2CNc2ccc(Cl)cc2)cc1 [7n, 4-Chloro-N-[(1-(phenylsulfonyl)-3-(p-tolyl)-1H-pyrazol-4-yl)methyl]aniline]",–,> 100,–,115,> 100,> 100,> 100,>19.6,>7.7,5.1 ± 0.6,13 ± 2.8,–
"Cc1ccc(-c2nn(S(=O)(=O)c3ccccc3)cc2CNc2ccc(Br)cc2)cc1 [7o, 4-Bromo-N-[(1-(phenylsulfonyl)-3-(p-tolyl)-1H-pyrazol-4-yl)methyl]aniline]",–,> 100,–,110,> 100,> 100,> 100,>27.0,>7.4,3.7 ± 1.3,13.5 ± 0.5,–
"Cc1ccc(NCc2cn(S(=O)(=O)c3ccccc3)nc2-c2ccc(C)cc2)cc1 [7p, 4-Methyl-N-[(1-(phenysulfonyl)-3-(p-tolyl)-1H-pyrazol-4-yl)methyl]aniline]",–,> 100,–,123 to 124,> 100,> 100,> 100,>27.8,>8.3,3.6 ± 0.5,12 ± 2,–
COc1ccc(S(=O)(=O)n2cc(CNc3ccccc3)c(-c3ccc(Br)cc3)n2)cc1 [8a],–,> 100,–,131 to 134,> 100,> 100,> 100,–,–,–,–,5.6 ± 0.8
"COc1ccc(S(=O)(=O)n2cc(CNc3ccc(C)cc3)c(-c3ccc(Br)cc3)n2)cc1 [8d, 4-Methyl-N-[(3-(4-bromophenyl)-1-((4-methoxphenyl)sulfonyl)-1H-pyrazol-4-yl)methyl]aniline]",–,> 100,–,164 to 166,> 100,100,> 100,>5.5,–,18.3 ± 1.1,–,–
COc1ccc(S(=O)(=O)n2cc(CNc3ccccc3)c(-c3ccc(Cl)cc3)n2)cc1 [8e],–,> 100,–,143 to 145,> 100,> 100,> 100,–,–,–,–,–
"COc1ccc(S(=O)(=O)n2cc(CNc3ccc(C)cc3)c(-c3ccc(Cl)cc3)n2)cc1 [8h, 4-Methyl-N-[(3-(4-chlorophenyl)-1-((4-methoxyphenyl)sulfonyl)-1H-pyrazol-4-yl)methyl]aniline]",–,> 100,–,169 to 171,> 100,> 100,> 100,–,–,–,–,–
"COc1ccc(S(=O)(=O)n2cc(CNc3ccccc3)c(-c3ccc(C)cc3)n2)cc1 [8i, N-[(1-((4-Methoxyphenyl)sulfonyl)-3-(p-tolyl)-1H-pyrazol-4-yl)methyl]aniline]",–,> 100,–,154 to 155,> 100,> 100,> 100,–,–,–,–,–
COc1ccc(S(=O)(=O)n2cc(CNc3ccc(Cl)cc3)c(-c3ccc(C)cc3)n2)cc1 [8j],–,> 100,–,157 to 158,> 100,> 100,> 100,–,–,–,–,–
"COc1ccc(S(=O)(=O)n2cc(CNc3ccc(C)cc3)c(-c3ccc(C)cc3)n2)cc1 [8l, 4-Methyl-N-[(1-((4-methoxyphenyl)sulfonyl)-3-(p-tolyl)-1H-pyrazol-4-yl)methyl]aniline]",–,> 100,–,145 to 146,> 100,> 100,> 100,–,–,–,–,–
"O=C1Nc2ccc(Cl)cc2[C@@](C#CC2CC2)(C(F)(F)F)O1 [EFV, Efavirenz, reference compound]",–,–,–,–,–,–,40 ± 2.5,–,–,–,–,–
